Earlier results in patent US20140011766A1, “ANTIMICROBIAL COMPOSITIONS AND METHODS” (priority 2012, published 2014).

System: pathogens
Conditions: except for spores (specifically C. difficile spores)

Q: Which killing of pathogens does the source give for `CCO` [Ethanol] here?
A: 99.99%
